Here are results for one compound from US7045626B2, “Quinoline derivatives, process for preparing them and use for the treatment of diseases mediated by s-CD23” (SmithKline Beecham p.l.c., priority 2001, dated 2006).

Test [1] concerns release of soluble CD23 from RPMI 8866 cell plasma membranes. Nature of the test: RPMI 8866 cell membrane CD23 cleavage activity assay. It counts as biochemical, human. To be noted: RPMI 8866 plasma membranes, 37° C., sCD23 by EIA; read-out: IC50, inhibition of production of sCD23. The protocol:
Procedure 1: The ability of test compounds to inhibit the release of soluble CD23 was investigated by use of the following procedure.
RPMI 8866 Cell Membrane CD23 Cleavage Activity Assay:
Plasma membranes from RPMI 8866 cells, a human Epstein-Barr virus transformed B-cell line (Sarfati et al., Immunology 60 [1987] 539–547) expressing high levels of CD23 are purified using an aqueous extraction method. Cells resuspended in homogenization buffer (20 mM HEPES pH 7.4, 150 mM NaCl, 1.5 mM MgCl2, 1 mM DTT) are broken by N2 cavitation in a Parr bomb and the plasma membrane fraction mixed with other membranes is recovered by centrifugation at 10,000×g. […]
The fractionated membranes are incubated at 37° C. for times up to 4 hrs to produce fragments of CD23 which are separated from the membrane by filtration in 0.2 micron Durapore filter plates (Millipore) after quenching the assay with a non-selecitve MMP inhibitor, e.g. 5 uM Preparation 1 from WO 95/31457 ([4-(N-Hydroxyamino)-2-(R)-isobutyl-3-(S)-(2-thiophenethiomethyl)succinyl]-(S)-phenylalanine-N-methylamide sodium salt, prepared according to the procedure described in Example 11 of WO 90/05719). sCD23 released from the membrane is determined using the EIA kit from The Binding Site (Birmingham, UK) or a similar one utilising MHM6 anti-CD23 mAb [Rowe et al., Int. […]

Test [2] concerns the target T1, human recombinant collagenase (Homo sapiens, UniProt P03956).
T1 construct: made in house; host or cells: E. coli
T1 sequence (P03956 100-469): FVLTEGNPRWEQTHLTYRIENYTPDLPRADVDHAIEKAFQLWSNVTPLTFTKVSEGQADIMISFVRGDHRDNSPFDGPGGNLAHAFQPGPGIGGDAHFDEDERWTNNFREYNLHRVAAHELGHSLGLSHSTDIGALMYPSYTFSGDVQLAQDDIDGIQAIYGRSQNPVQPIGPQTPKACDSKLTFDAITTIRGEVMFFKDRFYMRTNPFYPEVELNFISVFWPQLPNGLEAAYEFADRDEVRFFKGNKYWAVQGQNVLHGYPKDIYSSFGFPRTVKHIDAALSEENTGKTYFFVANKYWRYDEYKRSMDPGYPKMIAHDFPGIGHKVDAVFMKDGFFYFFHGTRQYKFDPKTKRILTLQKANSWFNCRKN
Nature of the test: Collagenase inhibition assay. It counts as biochemical. To be noted: 37° C., 18 h, 3H type 1 bovine collagen; read-out: IC50, collagenase inhibition (procedure 2). On the procedure: Procedure 2: The ability of test compounds to inhibit matrix metalloproteases was investigated using the following procedures.
Collagenase Inhibition Assay:
The potency of compounds to act as inhibitors of collagenase was determined by the method of Cawston and Barrett (Anal. Biochem. 99, 340–345, 1979), hereby incorporated by reference, whereby a 1 mM solution of the inhibitor being tested or dilutions thereof, was incubated at 37° C. for 18 h with collagen and human recombinant collagenase, from synovial fibroblasts cloned, expressed and purified from E. Coli, (buffered with 150 mM Tris, pH 7.6, containing 15 mM calcium chloride, 0.05% Brij 35, 200 mM sodium chloride and 0.02% sodium azide). The collagen was acetylated ^3H type 1 bovine collagen prepared by the method of Cawston and Murphy (methods in Enzymology 80, 711,1981) The samples were centrifuged to sediment undigested collagen and an aliquot of the radioactive supernatant removed for assay on a scintillation counter as a measure of hydrolysis. The collagenase activity in the presence of 1 mM inhibitor, or dilution thereof, was compared to activity in a control devoid of inhibitor and the results reported as that concentration effecting 50% of the collagenase (IC50).

The next test concerns the target T2, MMP-3 (Homo sapiens, UniProt P08254).
T2 construct: purchased Calbiochem
Kind of test: General MMP inhibition assay (fluorescence quench). Particulars: inhibitor up to 100 uM. It counts as biochemical. The protocol: (§1) General MMP Inhibition Assays:
(§2) Inhibition of matrix metalloprotease activity was determined using a fluorescence quench assay with appropriate substrate. For example, MMP activity was determined using MMP activated using trypsin, according to Lark et al, Connective Tissue Res. 25, 52 (1990). The MMP is incubated at room temperature in a microtitre plate in a total volume of 100 ul, containing 0.15 M Tris Cl, 15 mM CaCl2, 0.2 M NaCl, pH 7.6 (assay buffer); inhibitor at concentrations up to 100 uM, with no more than 2% DMSO final concentration, 10 uM substrate (such as SDP-3815-PI for MMP-1, Peptides International). The MMP concentration is <10 nM, and determined empirically with the appropriate substrate to give at least a 20-fold increase in fluorescence emission in 30 min. Fluorescent excitation wavelength was 355 nm, emission wavelength 400–460 nm, and data points are collected to generate slope (change in fluorescence with time). Percent inhibition for each concentration is calculated from the slope at time zero, and IC50 values from the concentration dependence. MMP-1, 2, 3, 7, 9, 13, 14 may all be assayed in the same manner, using commercially available substrates reported to be effective for each enzyme. Enzymes were obtained from Calbiochem and activated using the same trypsin method.

Another test addresses T3, MMP-13 (Homo sapiens, UniProt P45452).
T3 construct: purchased Calbiochem
Kind of test: General MMP inhibition assay (fluorescence quench). It counts as biochemical. To be noted: inhibitor up to 100 uM. On the procedure: as §1, §2

The term IC50 denotes the concentration needed to halve the response being measured.

T2 sequence (P08254 100-477, species assumed): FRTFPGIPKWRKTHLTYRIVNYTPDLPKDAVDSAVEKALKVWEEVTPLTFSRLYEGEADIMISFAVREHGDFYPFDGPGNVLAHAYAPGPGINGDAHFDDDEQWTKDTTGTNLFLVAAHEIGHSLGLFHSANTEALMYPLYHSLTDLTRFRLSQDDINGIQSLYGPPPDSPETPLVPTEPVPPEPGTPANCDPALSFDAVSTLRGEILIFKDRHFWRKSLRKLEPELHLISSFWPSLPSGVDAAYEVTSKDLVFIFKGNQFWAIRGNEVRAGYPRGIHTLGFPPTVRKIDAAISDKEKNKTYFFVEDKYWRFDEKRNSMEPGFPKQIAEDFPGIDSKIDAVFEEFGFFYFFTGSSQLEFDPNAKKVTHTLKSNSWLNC

In the case of `O=CN(O)[C@H](CS(=O)(=O)Cc1cnc2ccccc2c1)[C@H]1CCCO1` [Example 1], the IC50 in test [1] is 0.06 µM; in test [2] it was 100 µM; against MMP-3, > 100 µM; against MMP-13, 6 µM.
